# “And” between values parts separate entries of the source, which are not always exact repeats. Equal entries are not always repeated. Where two headings read alike, the source gives them in different places.
# Assays:
# [1] = Antioxidant effect on galantamine stability under normal and stress conditions; assay type: physicochemical
# [2] = Skin permeation, Franz diffusion cells; assay type: in vitro ADME, human; conditions: for Enhancement Ratio: human
# Procedure: The flux can be measured with a standard procedure using Franz diffusion cells, and the experiments were done on human cadaver skin. With Franz cells, in each Franz diffusion cell a disc (diameter of 25 mm) of human cadaver skin is placed on the receptor compartment. A transdermal delivery system is cut the same size as the skin and placed over the diffusion area in the center of the receptor. The donor compartment is then added and clamped to the assembly. At time 0, receptor medium solution 14 mL is added into the receptor compartment and the cell maintained at 32° C. Samples of the receptor compartment are taken periodically to determine the skin flux and analyzed by HPLC.
# Skin permeation of various formulations were tested. The results are provided in FIGS. 1, and 2 and Tables 5 and 6. Higher the amount of the galantamine in the adhesives will increase the penetration, but when over the saturation point, the transdermal system will crystalize, and result a low penetration rate.
# When adding an enhancer, it might improve the penetration rate. […] When increase the amount of the enhancer, it might not improve the penetration rate.
# A co-solvent helps dissolving the drug in the adhesive but it might also help with the penetration rate.
# [3] = galantamine with the antioxidant (label), 25′C
# [4] = galantamine with the antioxidant (label), 80′C-4 D
# [5] = galantamine with the antioxidant (label), 60′C-14 D
# [6] = galantamine with the antioxidant (label), 80′C-1 D
Molecule,"Total Impurity Amount % [1, 3] [%]","Total Impurity Amount % [1, 4] [%]","Total Impurity Amount % [1, 5] [%]","Total Impurity Amount % [1, 6] [%]",other results
"O=S([O-])([O-])=S.[Na+].[Na+] [Sodium Thiosulfate, sodium thiosulfate]",–,–,–,–,Total Impurity Amount % [1]: 0.13% and 1.02% and 0.67% and 2.20%
"CCCCCCCCCCCCCC(=O)OC(C)C [IPM, isopropyl myristate]",–,–,–,–,Enhancement Ratio ([2]; 3 % w/w): 2; Enhancement Ratio ([2]; 5 % w/w): 1
vitamin E,0.12,1.77,–,–,Total Impurity Amount % [1]: 0.84% and 0.69%
"OCC(O)CS (stereo not shown) [Monothioglycerol, monothioglycerol]",0.16,1.49,1.09,0.51,–
"O=S([O-])S(=O)(=O)[O-].[Na+].[Na+] [Sodium metabisulfite, sodium metabisulfite]",0.17,0.93,0.45,0.14,–
"CCCCCCCCCCCCCCCC(=O)OC[C@H](O)[C@H]1OC(=O)C(O)=C1O [Ascorbyl Palmitate, ascorbyl palmitate]",0.12,1.13,0.58,0.28,–
"Cc1cc(C(C)(C)C)c(O)c(C(C)(C)C)c1 [Butylated Hydroxytoluene (BHT), butylated hydroxytoluene]",0.11,1.18,0.33,0.51,–
"CCCCCCCC/C=C\CCCCCCCC(=O)O [Oleic Acid, oleic acid]",–,–,–,–,Enhancement Ratio ([2]; 3 % w/w): 1
"O=S([O-])[O-].[Na+].[Na+] [Sodium Sulfite, sodium sulfite]",0.14,1.69,–,–,Total Impurity Amount % [1]: 1.04% and 0.74%
"O=C1O[C@H]([C@H](O)CO)C(O)=C1O [Erythorbic Acid, erythorbic acid]",0.50,0.87,–,–,Total Impurity Amount % [1]: 1.35% and 0.74%
"CC(O)CO (stereo not shown) [Propylene Glycol, propylene glycol]",–,–,–,–,Enhancement Ratio ([2]; 5 % w/w): 4; Enhancement Ratio ([2]; 10 % w/w): 7
"O=S=O [Sulfur Dioxide, sulfur dioxide]",0.16,1.83,1.04,0.54,–
"CCOCCOCCO [Transcutol P, diethylene glycol monoethyl ether]",–,–,–,–,penetration rate [2]: improves the penetration rate; Enhancement Ratio ([2]; 5 %): 5; Enhancement Ratio ([2]; 5 % w/w): 4
"CCCCCCCC/C=C\CCCCCCCC(=O)OCC [Ethyl Oleate, ethyl oleate]",–,–,–,–,Enhancement Ratio ([2]; 3 % w/w): 2
"O=[N+]([O-])C(Br)(CO)CO [Bronopol, bronopol]",0.18,1.82,0.81,0.69,–

# Source: US20180008612A1 (priority 2016, published 2018)
